Measurements reported in article PMC10762035, “Molecular basis of human trace amine-associated receptor 1 activation” (Nature Communications, 2024).
Positions count from the first letter of the chain named. Several values for one entry are separate records, joined by “and”; a condition that tells them apart may be missing. Equal entries are not always repeated. Where two headings read alike, the source gives them in different places.

Legend:
Format in all cases: cell-based
hTA1 C13S = biological target: T1, hTA1 C13S (Homo sapiens, UniProt Q96RJ0, C13S); assay: GloSensor cAMP accumulation assay, C13S mutant
T1 construct: expressed in transfected cells; host or cells: HEK293T
T1 sequence (Q96RJ0 1-339 C13S): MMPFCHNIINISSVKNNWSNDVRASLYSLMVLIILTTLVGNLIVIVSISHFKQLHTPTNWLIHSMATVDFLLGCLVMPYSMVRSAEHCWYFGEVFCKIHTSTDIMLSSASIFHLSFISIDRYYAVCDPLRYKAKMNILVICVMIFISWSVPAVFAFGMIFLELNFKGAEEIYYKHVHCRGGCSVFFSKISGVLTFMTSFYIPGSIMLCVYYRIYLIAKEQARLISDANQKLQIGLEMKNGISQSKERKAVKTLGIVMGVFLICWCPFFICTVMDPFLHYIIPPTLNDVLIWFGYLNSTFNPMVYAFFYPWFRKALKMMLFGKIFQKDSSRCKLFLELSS

hTA1 S107C = biological target: T2, hTA1 S107C (Homo sapiens, UniProt Q96RJ0, S107C); assay: GloSensor cAMP accumulation assay, S107C mutant;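 also: cells transiently co-expressing receptor and GloSensor biosensor, luminescence read after 30 min agonist exposure at room temperature, concentration-response fitted by nonlinear regression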
T2 construct: expressed in transfected cells; host or cells: HEK293T
T2 sequence (Q96RJ0 1-339 S107C): T1 sequence (Q96RJ0 1-339 C13S) with S13C, S107C

hTA1 C178S = biological target: T3, hTA1 C178S (Homo sapiens, UniProt Q96RJ0, C178S); assay: GloSensor cAMP accumulation assay, C178S mutant; settings: for C178S - Normalized Luminescence Counts (N=2): log[Compound], single replicates
T3 construct: expressed in transfected cells; host or cells: HEK293T
T3 sequence (Q96RJ0 1-339 C178S): T1 sequence (Q96RJ0 1-339 C13S) with S13C, C178S

hTA1 I290N = biological target: T4, hTA1 I290N (Homo sapiens, UniProt Q96RJ0, I290N); assay: GloSensor cAMP accumulation assay, I290N mutant;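 also: cells transiently co-expressing hTA1 and the GloSensor cAMP biosensor, luminescence read 30 min after compound addition at room temperature, efficacy scaled to the maximal β-PEA response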
T4 construct: expressed in transfected cells; host or cells: HEK293T
T4 sequence (Q96RJ0 1-339 I290N): T1 sequence (Q96RJ0 1-339 C13S) with S13C, I290N

hTA1 T271A = biological target: T5, hTA1 T271A (Homo sapiens, UniProt Q96RJ0, T271A); assay: GloSensor cAMP accumulation assay, T271A mutant
T5 construct: expressed in transfected cells; host or cells: HEK293T
T5 sequence (Q96RJ0 1-339 T271A): T1 sequence (Q96RJ0 1-339 C13S) with S13C, T271A

## CCc1[nH]nc(C(=O)Nc2ccc([C@H]3CNCCO3)cc2)c1C [ralmitaront]
hTA1 C13S; C13S
  ΔpEC50 values (each mutant value - WT average): -0.1563 and -0.05083
hTA1 C13S; C13S, Mean of fit per experiment
  Emax values: 28.9629
hTA1 C13S; C13S, Mean of fit per experiment, read-out: Emax values
  Emax: 23.8%
hTA1 C13S; C13S, n=2, read-out: Span ± SEM (Emax normalized to β-PEA)
  Emax: 26.4 ± 2.6%
hTA1 C13S; log[Compound], M = -5, single wells
  C13S - Normalized Luminescence Counts (N=2): 24.7419 and 34.2578 and 19.4511 and 28.8102 and 35.1294 and 22.0805
hTA1 S107C; S107C mutant minus WT average
  ΔEmax values (each mutant value - WT average): 1.2358
hTA1 S107C; S107C mutant, β-PEA = 100, each line an independent experiment, 3 replicates
  Emax values, Mean: 57.0471
hTA1 S107C; S107C mutant, β-PEA = 100, each line an independent experiment, 3 replicates, read-out: Emax values (Mean)
  Emax: 41.3%
hTA1 S107C; S107C, n=2, read-out: Span ± SEM (Emax normalized to β-PEA)
  Emax: 49.2 ± 7.85%
hTA1 C178S; C178S, each row one experiment (N=2), 3 replicates
  ΔpEC50 values (each mutant value - WT average), Mean: -0.4487 and -0.0445
hTA1 C178S; C178S, n=2, read-out: Span ± SEM (Emax normalized to β-PEA)
  Emax: 69.5 ± 2.9%
hTA1 C178S; C178S, relative to β-PEA, read-out: Emax
  Emax: 69.5%
hTA1 C178S; C178S, β-PEA = 100, each row one experiment (N=2), 3 replicates
  Emax values, Mean: 72.4383
hTA1 C178S; C178S, β-PEA = 100, each row one experiment (N=2), 3 replicates, read-out: Emax values, Mean
  Emax: 66.6%
hTA1 C178S; M = -5
  C178S - Normalized Luminescence Counts (N=2): 73.8012 and 62.4927 and 60.9506 and 66.8043 and 64.022 and 61.0303
hTA1 C178S; M = -5.522
  C178S - Normalized Luminescence Counts (N=2): 57.6328 and 63.2871 and 59.3151 and 75.9888 and 75.2109 and 62.2569
hTA1 C178S; M = -6
  C178S - Normalized Luminescence Counts (N=2): 43.2869 and 48.3804 and 55.2496 and 74.2835 and 69.4968
hTA1 C178S; M = -6.522
  C178S - Normalized Luminescence Counts (N=2): 30.9035 and 28.8942 and 35.67 and 44.4265 and 49.1234 and 56.9916
hTA1 C178S; M = -7
  C178S - Normalized Luminescence Counts (N=2): 14.8753 and 16.3239 and 23.7072 and 27.2542 and 34.494 and 27.6431
hTA1 C178S; M = -7.522
  C178S - Normalized Luminescence Counts (N=2): 4.642 and 7.866 and 7.3986 and 13.4924 and 12.7145 and 13.5821
hTA1 C178S; M = -8
  C178S - Normalized Luminescence Counts (N=2): 1.277 and 2.445 and 2.959 and 5.594 and 6.073 and 4.936
hTA1 C178S; M = -8.522
  C178S - Normalized Luminescence Counts (N=2): -0.2183 and 0.7163 and 2.0247 and 0.7179 and 1.526 and 2.842
hTA1 C178S; M = -9
  C178S - Normalized Luminescence Counts (N=2): -0.3585 and 0.1555 and -0.03139 and 0.4785 and 0.3289 and 2.214
hTA1 C178S; M = -9.522
  C178S - Normalized Luminescence Counts (N=2): -1.433 and 1.137 and -0.6389 and -0.0001415 and -0.6284 and -0.3292
hTA1 C178S; M = -10
  C178S - Normalized Luminescence Counts (N=2): -1.1529 and -1.2 and -1.106 and 0.05969 and -0.9575 and -1.5259
hTA1 C178S; M = -10.522
  C178S - Normalized Luminescence Counts (N=2): -0.5454 and -0.2183 and -0.8258 and -2.334 and -1.855 and -2.154
hTA1 C178S; M = -11
  C178S - Normalized Luminescence Counts (N=2): -0.3585 and -0.2183 and -0.4987 and 0.6281 and 0.3589 and 0.4785
hTA1 C178S; M = -11.522
  C178S - Normalized Luminescence Counts (N=2): -0.3585 and -0.07812 and 0.1555 and 0.5384 and -0.08989 and -0.419
hTA1 C178S; M = -12
  C178S - Normalized Luminescence Counts (N=2): -0.966 (2×) and -0.3585 and -0.8079 and -2.005 and -0.9874
hTA1 C178S; M = -12.522
  C178S - Normalized Luminescence Counts (N=2): 1.09 and -0.2183 and -0.8725 and 0.3888 and -1.137 and -2.364
hTA1 I290N; I290N, n=2, read-out: Span ± SEM (Emax normalized to β-PEA)
  Emax: 43.6 ± 5.35%
hTA1 I290N; hTA1 I290N (N=2), log[Compound], M = -5
  cAMP accumulation response, single replicate values (source data, Supplementary Figure 5): 44.9736 and 36.855 and 39.1073 and 50.4588
hTA1 I290N; hTA1 I290N mutant, β-PEA set to 100, each grid row a separate experiment, 3 replicates
  Emax values, Mean: 38.2871
hTA1 I290N; hTA1 I290N mutant, β-PEA set to 100, each grid row a separate experiment, 3 replicates, read-out: Emax values (Mean)
  Emax: 49%
hTA1 T271A; T271A mutant minus WT average, Figure 5B
  ΔpEC50 values (each mutant value - WT average), Mean: -0.01384
hTA1 T271A; T271A mutant, Figure 5B, β-PEA = 100, each row one independent experiment (3 replicates)
  Emax values, Mean: 56.995
hTA1 T271A; T271A mutant, Figure 5B, β-PEA = 100, each row one independent experiment (3 replicates), read-out: Emax values, Mean
  Emax: 65.2%
hTA1 T271A; T271A, n=2, read-out: Span ± SEM (Emax normalized to β-PEA)
  Emax: 61.1 ± 4.08%
